Test results: patent US8637237B2, “Methods, compositions, and systems for the identification of species-specific or developmental stage-specific insecticides” (The University of North Carolina at Greensboro, priority 2003, dated 2014)
Each block holds one compound with its values, some of them ahead of it.

How the values were obtained:
GRdEcR/RXR [1] = target: T1, GRdEcR/RXR (Drosophila melanogaster, UniProt P34021, E261P/P331L/Q260P/V259R); assay: GRdEcR (GEcEc) chimera with RXR, (EcRE)5-ΔMTV reporter in CHO cells; assay type: cell-based
T1 construct: ligation of a Not I-Bam HI fragment containing the DBD and LBD of a modified EcR cDNA, EcRnx; expressed in transfected cells; host or cells: CHO
T1 sequence (P34021 259-878 V259R/Q260P/E261P/P331L limits assumed): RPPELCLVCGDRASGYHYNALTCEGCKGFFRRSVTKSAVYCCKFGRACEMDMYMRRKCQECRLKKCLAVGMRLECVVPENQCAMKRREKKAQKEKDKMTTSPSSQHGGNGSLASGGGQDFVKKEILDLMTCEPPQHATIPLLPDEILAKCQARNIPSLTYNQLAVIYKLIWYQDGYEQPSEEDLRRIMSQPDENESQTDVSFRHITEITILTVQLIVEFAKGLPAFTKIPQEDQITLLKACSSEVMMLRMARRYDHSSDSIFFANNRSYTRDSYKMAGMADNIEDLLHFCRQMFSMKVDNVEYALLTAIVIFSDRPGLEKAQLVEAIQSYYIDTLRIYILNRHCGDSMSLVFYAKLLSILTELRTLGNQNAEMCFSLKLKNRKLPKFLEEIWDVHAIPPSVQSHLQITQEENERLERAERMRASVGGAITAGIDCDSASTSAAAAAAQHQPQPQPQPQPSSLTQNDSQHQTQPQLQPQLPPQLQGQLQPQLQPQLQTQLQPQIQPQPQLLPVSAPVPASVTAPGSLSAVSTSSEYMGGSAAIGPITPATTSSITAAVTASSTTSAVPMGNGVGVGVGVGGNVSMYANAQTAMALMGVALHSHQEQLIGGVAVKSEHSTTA
T1 sequence (P28700 1-467 partner): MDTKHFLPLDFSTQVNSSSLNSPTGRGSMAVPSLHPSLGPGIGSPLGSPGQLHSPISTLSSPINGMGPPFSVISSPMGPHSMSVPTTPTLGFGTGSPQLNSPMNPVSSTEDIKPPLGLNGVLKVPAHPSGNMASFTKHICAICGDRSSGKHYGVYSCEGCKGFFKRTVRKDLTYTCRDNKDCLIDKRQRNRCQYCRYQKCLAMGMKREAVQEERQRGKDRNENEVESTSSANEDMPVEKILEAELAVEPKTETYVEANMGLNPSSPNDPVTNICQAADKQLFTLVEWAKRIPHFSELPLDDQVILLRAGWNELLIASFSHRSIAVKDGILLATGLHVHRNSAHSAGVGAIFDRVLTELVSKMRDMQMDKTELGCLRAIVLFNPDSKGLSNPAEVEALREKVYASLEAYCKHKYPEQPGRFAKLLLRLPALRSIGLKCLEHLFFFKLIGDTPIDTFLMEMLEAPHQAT
Protocol: (§1) These experiments employed a mammalian cell culture system using Chinese hamster ovary cells (CHO) to evaluate the transcriptional function of Drosophila melanogaster EcR and USP using methods described previously (U.S. Patent Application Publication No: 2005/0049230; Henrich et al, 2003). Cells were seeded in 6-well polypropylene culture plates (Falcon) with 10^5 cells per well on the day prior to transfection. Transfection was subsequently performed using either calcium phosphate (Kitareewan et al., 1996, Mol. Biol. Cell, 7:1153-1196) or a GenePorter reagent (Gene Therapy Systems, Inc; San Diego, Calif.) following manufacturer's protocols. Each well received 1.25 μg of (EcRE)5-ΔMTV-CAT (five copies of the hsp27 EcRE inserted into an mouse mammary tumor virus (MTV) promoter upstream of the chloramphenicol acetyltransferase (CAT) gene) or (EcRE)5-ΔMTV-LUC (the same promoter attached to firefly luciferase), 1.25 μg of pCH111 (SV40 early promoter linked to the β-galactosidase gene) to normalize CAT activity, and 0.25 μg of each expression plasmid (EcR, FXR, RXR, USP) that was tested. The cells were incubated with plasmid DNA for seven hours and then washed with 1×PBS. Muristerone A (murA; Alexis Biochemicals) or 20-hydroxyecdysone (20E; Sigma) dissolved in ethanol to a concentration of 10 mM was diluted as necessary to the final assay concentration (FAC) in 2 ml of fresh incubation medium that was then applied to the cells. Similarly, JHIII (Sigma) was dissolved in dimethyl sulfoxide (DMSO) to a concentration of […] and diluted into the incubation medium to its final assay concentration (20, 40, 80, 160 μM). […] A corresponding volume of ethanol and DMSO were added to control cells for all experiments. For all experiments, the cells were allowed to incubate with the medium for 24 hours before collection and cell lysates were prepared by described methods (Kitareewan et al., 1996). Both β-galactosidase and CAT reporter activity were measured based on previously used methods (Kitareewan et al, 1996). Luciferase assays using luciferrin followed the specifications of the manufacturer.
(§2) Transcriptional activity, measured as ^14C-chloramphenicol counts (for measuring CAT activity) or relative luciferase activity (RLU) was quantified for each cell lysate. The counts were then normalized by adjusting for differences in β-galactosidase activity, since β-galactosidase expression is controlled by a constitutive promoter and provides an estimate of cell mass. Data were normalized as fold-induction based on differences in reporter gene activity between hormonally treated and control cells.
(§3) In an initial series of studies, a GRdEcR chimera that consists of the rat glucocorticoid receptor (GR) activation domain attached to the EcR DBD and LBD (FIG. 1) was cotransfected along with mRXRα into CHO cells. The response of transfected cells to murA was measured using a (EcRE)5-ΔMTV-CAT reporter plasmid that carries five tandem repeats of the hsp27 EcRE linked to the MTV (mouse mammary tumor virus) promoter and the chloramphenicol acetyltransferase gene (CAT).
(§4) The prominent candidate for this JH-responsive macromolecule in insects is the structurally-related ecdysone receptor (EcR). Like FXR, EcR heterodimerizes with RXR and binds to the hsp27 ecdysone-responsive DNA element (Forman et al., 1995), but distinctively activates transcription in response to muristerone A (MurA or MUR), a synthetic ecdysone (Yao et al., 1992). […] In the experiments shown in FIG. 15A, muristerone A (MUR) was added at the indicated doses in ethanol vehicle, and increasing amounts of JH III (12, 25, or 50 μM) were added (underlying triangles). Numbers over bars indicate the ratio of the GEcEc-dependent activity produced by 50 μM JH III in the presence of the indicated dose of MUR to the activity produced by MUR alone. Relative light units (RLU) from firefly luciferase in cell lysates are expressed relative to renilla luciferase (Promega).

FXR = target: T2, FXR (Rattus norvegicus, UniProt Q62735); assay: cell-based
T2 sequence (Q62735 1-469): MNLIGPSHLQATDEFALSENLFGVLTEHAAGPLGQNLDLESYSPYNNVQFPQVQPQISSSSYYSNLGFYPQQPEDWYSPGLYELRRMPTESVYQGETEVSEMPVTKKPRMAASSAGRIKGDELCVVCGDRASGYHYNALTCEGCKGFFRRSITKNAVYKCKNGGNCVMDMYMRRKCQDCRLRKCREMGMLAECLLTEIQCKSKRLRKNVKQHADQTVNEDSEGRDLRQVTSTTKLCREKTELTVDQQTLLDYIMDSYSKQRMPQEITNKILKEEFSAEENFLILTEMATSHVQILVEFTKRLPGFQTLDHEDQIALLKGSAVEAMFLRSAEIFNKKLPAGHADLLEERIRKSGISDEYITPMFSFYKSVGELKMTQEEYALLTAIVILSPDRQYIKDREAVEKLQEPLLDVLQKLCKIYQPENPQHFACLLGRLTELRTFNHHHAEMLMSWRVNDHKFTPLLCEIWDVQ
T2 sequence (P28700 1-467 partner): T1 sequence (P28700 1-467 partner)
Protocol: as §1, §2
In these experiments, candidate juvenoids were tested for their ability to activate FXR mediated transcription by transfecting Chinese hamster ovary (CHO) cells using the FXR plasmid, mouse RXRα, and the ΔMTV-(EcRE)5-CAT reporter as described herein. An RXR-dependent CRBPII-CAT reporter plasmid was employed in parallel assays to discern activators specific for this receptor.

GRdEcR/RXR [2] = target: T3, GRdEcR/RXR (Drosophila melanogaster, UniProt P34021); assay: GRdEcR (GEcEc) chimera with RXR, (EcRE)5-ΔMTV reporter in CHO cells; assay type: cell-based; conditions: 25 μM insecticide; 10 nM MUR
T3 construct: ligation of a Not I-Bam HI fragment containing the DBD and LBD of a modified EcR cDNA, EcRnx; expressed in transfected cells; host or cells: CHO
T3 sequence (P34021 259-878 V259R/Q260P/E261P/P331L limits assumed): T1 sequence (P34021 259-878 V259R/Q260P/E261P/P331L limits assumed)
T3 sequence (P28700 1-467 partner): T1 sequence (P28700 1-467 partner)
Protocol: as §1, §2, §3, §4

insect = conditions: from Schneiderman and Gilbert, Science 143; cited from earlier work
[3] = final dose of 50 ∝M, 1 = induction less than 2-fold below cytotoxic doses

Compound: C[C@H](CCC(=O)O)[C@H]1CC[C@H]2[C@@H]3[C@H](O)C[C@@H]4C[C@H](O)CC[C@]4(C)[C@H]3CC[C@]12C [CDCA, chenodeoxycholic acid]
induction of GEcEc (GRdEcR/RXR [1]; data not shown): did not induce

Compound: CCOP(=S)(OCC)Oc1nc(Cl)c(Cl)cc1Cl [chlorpyrifos]
FXR-dependent activity, induction (FXR; 25 μM): potencies and efficacies like farnesol
GEcEc-dependent activity, insecticide plus MUR over MUR alone (GRdEcR/RXR [2]): nine times

Compound: CCOP(=S)(OCC)Oc1ccc2c(C)c(Cl)c(=O)oc2c1 [coumaphos]
GEcEc-dependent activity, insecticide plus MUR over MUR alone (GRdEcR/RXR [2]): between two and three times

Compound: CCOP(=S)(OCC)Oc1cc(C)nc(C(C)C)n1 [diazinon]
GEcEc-dependent activity, insecticide plus MUR over MUR alone (GRdEcR/RXR [2]): between two and three times

Compound: CC(C)=CCCC(C)=CCCC(C)=CC=O [farnesal]
FXR-dependent CAT activity, induction (FXR; 50 μM): 2 fold
FXR ACTIVITY (fold-induction) (FXR; [3]): 2 fold-induction
JH ACTIVITY (units/g) (insect): 32 units/g

Compound: CC(C)=CCC/C(C)=C/CC/C(C)=C/CO [farnesol, all-trans farnesol]
JH ACTIVITY (units/g) (insect): 140 units/g
increase in GEcEc activity over that provided by MUR alone (GRdEcR/RXR [1]; 45 μM farnesol with MUR): 4 fold

Compound: CC(=O)OCC=C(C)CCC=C(C)CCC=C(C)C [farnesyl acetate]
JH ACTIVITY (units/g) (insect): 5.4 units/g

Compound: CC(C)=CCC/C(C)=C/CO [geraniol]
FXR-dependent activity, induction (FXR; dose not stated): neither the monoterpenes linalool (200 μM) nor geraniol were effective
FXR ACTIVITY (fold-induction) (FXR; [3]): 1 fold-induction
JH ACTIVITY (units/g) (insect): 0 units/g

Compound: CC(C)CCCC(C)CCCC(C)CCO (stereo not drawn) [hexahydrofarnesol]
JH ACTIVITY (units/g) (insect): 0 units/g

Compound: C=CC(C)(O)CCCC(C)CCCC(C)CCCC(C)C (stereo not drawn) [isophytol]
JH ACTIVITY (units/g) (insect): 0 units/g

Compound: C=CC(C)(O)CCC=C(C)C (stereo not drawn) [linalool]
JH ACTIVITY (units/g) (insect): 0.08 units/g

Compound: CC1(C)C(C=C(Cl)Cl)C1C(=O)OCc1cccc(Oc2ccccc2)c1 (stereo not drawn) [permethrin]
GEcEc-dependent activity, insecticide plus MUR over MUR alone (GRdEcR/RXR [2]): between two and three times

FXR-dependent CAT activity, induction (FXR; 50 μM): three times
Compound: C/C(=C\CO)CCC[C@H](C)CCC[C@H](C)CCCC(C)C [phytol]
FXR ACTIVITY (fold-induction) (FXR; [3]): 3 fold-induction
JH ACTIVITY (units/g) (insect): 32 units/g

Compound: c1cc2c(cc1[C@H]1OC[C@H]3[C@@H]1CO[C@@H]3c1ccc3c(c1)OCO3)OCO2 [sesamin]
FXR-dependent activity, induction (FXR; 100 μM): 12 fold
FXR ACTIVITY (fold-induction) (FXR; dose 100 μM, 1 = no increase over vehicle): 12 fold-induction
potentiation of MUR-inducible GEcEc-dependent activity (GRdEcR/RXR [1]; 25 μM test compound, 0.2 μM muristerone A): between two and four times

Compound: CC(C)=CCC/C(C)=C/CC/C(C)=C/CC/C(C)=C/CC/C(C)=C/CC/C(C)=C/CC/C(C)=C/CC/C(C)=C/CC/C(C)=C/CO [solanesol]
JH ACTIVITY (units/g) (insect): 0.05 units/g

FXR-dependent activity, induction (FXR; 800 μM): two-fold
FXR ACTIVITY (fold-induction) (FXR; dose 400 μM): 402 fold-induction
Compound: CC1=CCC(C(C)(C)O)CC1 (stereo not drawn) [α-terpineol]

FXR-dependent activity, induction (FXR; 25 μM): 11 fold
FXR ACTIVITY (fold-induction) (FXR; dose 25 μM): 11 fold-induction
Compound: C[C@H]1[C@H](C)CC[C@]2(C)CC[C@]3(C)C(=CC[C@@H]4[C@@]5(C)CC[C@@H](O)[C@](C)(C(=O)O)[C@@H]5CC[C@]43C)[C@H]12 [β-boswellic acid]

FXR ACTIVITY (fold-induction) (FXR; dose 150 μM): 10 fold-induction
Compound: CC(=O)/C=C/C1=C(C)CCCC1(C)C [β-ionone]

Compound: CC(C)=CCC/C(C)=C/CC/C(C)=C/CC[C@]1(C)CCc2cc(O)c(C)c(C)c2O1 [γ-tocotrienol]
FXR ACTIVITY (fold-induction) (FXR; dose 20 μM, 1 = no increase over vehicle): 1 fold-induction

Compound: aroclor 1254
FXR-dependent CAT activity, induction (FXR; 5 μM): 5 fold

Compound: geranyl linalool
JH ACTIVITY (units/g) (insect): 0.14 units/g

Compound: precocene
inhibition of FXR-dependent activity in the CHO cell-based assay (FXR): did not inhibit
GEcEc-dependent activity, insecticide plus MUR over MUR alone (GRdEcR/RXR [2]): between two and three times

Compound: toxaphenes
FXR-dependent CAT activity, induction (FXR; 5 μM): 9 fold
